These results are taken from patent US20240166629A1, “HETEROCYCLIC COMPOUNDS CAPABLE OF ACTIVATING STING” (Boehringer Ingelheim International GmbH, priority 2022, published 2024).

The target in series [1] is T1, human STING variant H232R (WT) (Homo sapiens, UniProt Q86WV6, H232R).
T1 construct: expressed in transfected cells; host or cells: THP1-Blue ISG hSTING KO clone, retroviral MSCV-ires-GFP-Blasti
The experiment in a line: THP1-Blue ISG IRF-inducible SEAP reporter assay, STING H232R-variant. The class given is cell-based. To be noted: THP1-Blue ISG hSTING KO cells expressing STING H232R; 24 hours incubation. The text has this: (§1) Activation of the STING protein expressed in cell lines results in an increase of interferon production. By the stable integration of an interferon regulatory factor (IRF)-inducible SEAP gene (secreted embryonic alkaline phosphatase) reporter construct the functional interferon signaling pathway can be monitored. Using Invivogen's THP1-Blue™ ISG colorimetric enzyme assay and a suitable optical density (OD) reader the activity of SEAP can be detected and quantified. This technique could be used to characterize pharmacological modification of the STING pathway.
(§2) Several single nucleotide polymorphisms have been identified in the human STING gene. To determine the activity of the above described compounds, THP1-Blue™ ISG reporter cell lines expressing the different human STING variants have been generated. To do so, the endogenous human STING was first deleted using the CRISPR/CAS9 system: THP1-Blue ISG cells were electroporated with ALL-IN-ONE CRISPR plasmids targeting the STING gene (purchased from Sigma encoding the gRNA and GFP as a reporter gene for successful transduction). GFP positive cells then were sorted 24 h post transfection and expanded. Cells were then dispersed in semisolid methocel medium to allow single cell clone isolations. Clones were then screened for cGAMP responsiveness using the Quanti-Blue™ reporter assay. Non-responsive clones were subsequently analysed for STING loss by western blotting and sequencing of the STING locus.
(§3) For the overexpression of the human STING variants, a confirmed THP1-Blue™ ISG hSTING KO clone was transduced with individual retroviral plasmids (MSCV-ires-GFP-Blasti) encoding the allelic variants of hSTING (WT (H232R), HAQ, R232H, AQ and R293Q). Transduced cells were sorted for different levels of GFP fluorescence and STING allele expression was analysed by western blot.
(§4) Measurements of SEAP activity were performed in THP1-Blue™ ISG cells stably expressing the different human STING isoforms and the IRF-inducible SEAP reporter construct. Cells were cultivated in RPMI1640 medium with 10% fetal calf serum, 50 μg/ml Penicillin-Streptomycin, 100 μg/ml Zeocin, and 100 μg/ml Normocin in a 37°, 95% humidity and 5% CO2 incubator.
(§5) In preparation for the assay, the cells were distributed into the assay plates with a density of 10000 cells/15 μL per well. Compounds were prepared by an 8 point serial dilution in 50% aqueous DMSO and a final dilution step into medium to ensure a final DMSO concentration of 0.5% in the assay. 5 μL of diluted compounds were added to the plates, followed by a 24 hours incubation at 37° C.
(§6) At the day of the assay, 75 μl per well of Quanti-Blue™ reagent was added to all wells of the plate and the plate was incubated another 30 minutes at 37° C. The OD at 620 nm was measured on the EnVision reader (PerkinElmer).

The target of a further series is T2, human STING variant HAQ (Homo sapiens, UniProt Q86WV6, G230A/H232R/R293Q/R71H).
T2 construct: expressed in transfected cells; host or cells: THP1-Blue ISG: either parental cells (endogenous HAQ) or hSTING KO clone retrovirally transduced with HAQ
T2 sequence (Q86WV6 whole entry R71H/G230A/H232R/R293Q): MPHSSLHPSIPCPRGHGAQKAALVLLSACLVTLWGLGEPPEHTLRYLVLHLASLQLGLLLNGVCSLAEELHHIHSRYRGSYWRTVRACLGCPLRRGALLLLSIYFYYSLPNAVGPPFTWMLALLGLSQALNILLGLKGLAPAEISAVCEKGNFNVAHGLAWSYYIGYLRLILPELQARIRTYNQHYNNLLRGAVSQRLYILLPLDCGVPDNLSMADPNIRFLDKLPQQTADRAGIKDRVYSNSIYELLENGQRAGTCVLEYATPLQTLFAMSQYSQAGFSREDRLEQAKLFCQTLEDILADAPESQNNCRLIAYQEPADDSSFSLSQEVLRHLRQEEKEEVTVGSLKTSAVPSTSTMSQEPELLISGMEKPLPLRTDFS
The experiment in a line: THP1-Blue ISG IRF-inducible SEAP reporter assay, STING HAQ-variant. It counts as cell-based. Particulars: THP1-Blue ISG cells expressing STING HAQ (parental or re-introduced); 24 hours incubation; SEAP OD 620 nm.
Description: as §1, §2, §3, §4, §5, §6
Data of EC50 values on STING HAQ-variant can be found in table 2a. Shown data below were either derived from the parental THP1-Blue™ ISG cell lines (which express endogenously HAQ) or from genetically engineered THP1-Blue™ ISG cell lines in which first STING has been knocked-out and the HAQ specific STING isoform has been re-introduced as described above.

Series [2] concerns Human STING (hSTING, UNIPROT entry Q86WV6, residues 155-341). The series can be described thus: Interaction with hSTING by differential scanning fluorimetry (DSF). It counts as binding. Particulars: 100 μM test compound, 5 μM hSTING protein. The method, then: In DSF, the temperature at which a protein unfolds, also called the melting temperature Tm, is measured by changes in fluorescence of a dye that binds to the hydrophobic parts of the protein. Tm shifts upon binding of a small molecule are correlated with the binding affinity of this small molecule. As target protein, Human STING (hSTING, UNIPROT entry Q86WV6, residues 155-341, MW: 21578.4 Da; protein stock solution: c=1302 μM stock solution in 20 mM Tris, 100 mM NaCl, 2 mM TCEP pH 8.8) was used, as assay buffer 20 mM Tris, 150 mM NaCl pH7.5 was added where and as necessary.
Final concentrations of components in assay: 100 μM test compounds, 5 μM target protein, “5×” SYPR Orange (from stock solution SYPRO orange solution in DMSO (invitrogen cat.-no. 56650-500ul), concentration “5000×”)
Assay Procedure: • 1) Dilutions of compound stock solutions (10 mM in DMSO) were prepared in assay buffer (20 mM Tris, 150 mM NaCl; pH7.5) • 2) 5 μl fluorescent dye stock solution (5000×SYPRO Orange in DMSO) was mixed with 19 μl target protein (1302 μM) and 976 μl assay buffer. • 3) 2 μl of this protein-dye-mixture (25×SYPRO Orange and 25 μM Protein) was added to 8 μl diluted compound solution as prepared in step 1. Final volume was 10 μl. • 4) With every 20 compounds, two negative controls were measured. • 5) The plates were prepared for duplicate measurement and centrifuged for 2 min at 1000 g. • 6) For the measurement, a CFX384 Real-Time System (Bio-Rad) was used. The run consisted of 140 cycles with 0.5° C./cycle (temperature ramp 15 s/cycle, 25° C. to 95° C.).
Data analysis: The melting curves were processed in Bio-Rad CFX Manager. Peak type was set to “negative”. Two replicates of TM (melting temperature) measurements were averaged and the standard deviation was calculated.

A further series has as its target T3, human STING variant AQ (Homo sapiens, UniProt Q86WV6, G230A/H232R/R293Q).
T3 construct: expressed in transfected cells; host or cells: THP1-Blue ISG hSTING KO clone, retroviral MSCV-ires-GFP-Blasti
The series can be described thus: THP1-Blue ISG IRF-inducible SEAP reporter assay, STING AQ-variant. The class given is cell-based. To be noted: THP1-Blue ISG hSTING KO cells expressing STING AQ; 24 hours incubation.
Description: as §1, §2, §3, §4, §5, §6

Series [3] addresses T4, human STING variant R293Q (Homo sapiens, UniProt Q86WV6, H232R/R293Q).
T4 construct: expressed in transfected cells; host or cells: THP1-Blue ISG hSTING KO clone, retroviral MSCV-ires-GFP-Blasti
The series can be described thus: THP1-Blue ISG IRF-inducible SEAP reporter assay, STING R293Q-variant. The class given is cell-based. To be noted: THP1-Blue ISG hSTING KO cells expressing STING R293Q; 24 hours incubation.
Description: as §1, §2, §3, §4, §5, §6

Series [4] has as its target T5, human STING variant R232H (Homo sapiens, UniProt Q86WV6).
T5 construct: expressed in transfected cells; host or cells: THP1-Blue ISG hSTING KO clone, retroviral MSCV-ires-GFP-Blasti
The series can be described thus: THP1-Blue ISG IRF-inducible SEAP reporter assay, STING R232H-variant. It counts as cell-based. To be noted: THP1-Blue ISG hSTING KO cells expressing STING R232H; 24 hours incubation.
Description: as §1, §2, §3, §4, §5, §6

The next series in a line: in vitro. Particulars: human, Caco-2, pH 7.4.

T5 sequence (Q86WV6 whole entry, stated change not applied): as the sequence (Q86WV6 whole entry R71H/G230A/H232R/R293Q) above, with H71R, A230G, R232H, Q293R counted along it
T3 sequence (Q86WV6 whole entry G230A/H232R/R293Q): as the sequence (Q86WV6 whole entry R71H/G230A/H232R/R293Q) above, with H71R counted along it
T4 sequence (Q86WV6 whole entry H232R/R293Q): as the sequence (Q86WV6 whole entry R71H/G230A/H232R/R293Q) above, with H71R, A230G counted along it
T1 sequence (Q86WV6 whole entry H232R): as the sequence (Q86WV6 whole entry R71H/G230A/H232R/R293Q) above, with H71R, A230G, Q293R counted along it
Description for in vitro: Caco-2 cells were obtained from Leibniz Institute DSMZ-German Collection of Microorganisms and Cell Cultures (Braunschweig, Germany) and cultured in DMEM (Dulbecco's modified Eagle medium) containing (in final concentrations) 10% FCS (fetal calf serum), 1% NEAA (non-essential amino acids), 2 mM Glutamin, 100 U/mL Penicillin and 100 μg/mL Streptomycin. Caco-2 cells were seeded either onto 24-well Transwell inserts (Corning, #3379) for bidirectional permeability assays at a density of 160,000 cells/cm^2 and cultured for 3 weeks, with media change on every second day.
For bidirectional permeability assays 10 mM DMSO stock solutions were diluted in transport buffer (final concentrations: 128.13 mM NaCl, 5.36 mM KCl, 1 mM MgSO4, 1.8 mM CaCl2, 4.17 mM NaHCO3, 1.19 mM Na2HPO4, 0.41 mM NaH2PO4, 15 mM 2-[4-(2-hydroxyethyl)piperazin-1-yl]ethanesulfonic acid (HEPES), 20 mM glucose, pH 7.4) containing 0.25% bovine serum albumin to a final concentration of 10 μM of the test compounds and added to the apical or basal compartment. Cells were incubated with the compounds for up to 2 h. Samples from the opposite compartment were taken at different timepoints.
Compound concentrations in the compartments were quantified using a RapidFire-based high-throughput HPLC/MS/MS system (high performance liquid chromatography/mass spectrometry; BioCius) that was customized to a fully automated and flexible platform, termed RIAS. In this modified setup, the sample was aspirated by a vacuum pump into a 10 μL sample loop for 250 ms and flushed onto a C4 cartridge (3.8 μL bed volume; BioCius) with the aqueous mobile phase (99.9% water, 0.09% formic acid, and 0.01% TFA; flow rate 1.5 mL/min). Prior to bioanalysis samples were spiked with internal standard solution and diluted with acetonitrile (ACN) for protein precipitation. Measurement was operated in multiplereaction monitoring (MRM) mode. Quantification was performed using external calibration. A solid-phase extraction step retained the analyte for 3000 ms while interfering matrix (e.g., buffer components) was removed. With a simple step gradient, the analyte was back-eluted from the cartridge for 3,000 ms with the organic mobile phase (99.9% acetonitrile/methanol [1:1, v:v], 0.09% formic acid, and 0.01% TFA) and flushed into the mass spectrometer at a flow rate of 1.25 mL/min. Afterwards, the cartridge was reequilibrated with the aqueous mobile phase for 500 ms (flow rate 1.5 mL/min). The RapidFire software and a customized control software were obtained from BioCius. QuickQuan 2.3, Xcalibur 2.0.7, and XDK 2.1.0.25 were used to operate the TSQ Vantage mass spectrometer (ThermoFisher, San Jose, CA) integrated to the RapidFire system. Mass spectral data-processing software QuickCalc 7.1.9 was purchased from ThermoFisher. The Master software for the RIAS was programmed in-house using LabVIEW (version 8.6.1; National Instruments, Austin, TX). Data analysis was performed in AssayExplorer 3.2 (Symyx, Sunnyvale, CA), and correlation plots were visualized in Spotfire version 2.2.0 (TIBCO, Palo Alto, CA).
Apparent permeability coefficients in the apical to basal direction (Papp,AB) and in the basal to apical direction (Papp,BA) and efflux ratios were calculated as follows:
Efflux ratio=Papp,BA/Papp,AB
where Q is the amount of compound recovered in the receiver compartment after the incubation time t, C0 the initial compound concentration given to the donor compartment, and s the surface area of the Transwell inserts. […] In addition, transepithelial electrical resistance (TEER) values are measured for each plate before the permeability assay, and total recovery in donor and receiver compartments was determined for each compound.

As for `Cc1c(Cl)ccc2c(-c3cccc4nn(C)cc34)nn(-c3ccc(N4CCC(S(C)(=O)=O)CC4)nc3)c12` [compound 2, 6-chloro-2′,7-dimethyl-1-(6-(4-(methylsulfonyl)piperidin-1-yl)pyridin-3-yl)-1H,2′H-3,4′-biindazole], the 50% effective concentration (EC50) came to 300 nM in series [1]; 900 nM on human STING variant HAQ; 600 nM at human STING variant AQ; 700 nM in series [3]; 300 nM in series [4]. In series [2], the “TM (changes in TM, thermal shift)” value is 22 K.

Take `Cc1cc(F)cc2c(-c3cccc4nn(C)cc34)nn(-c3ccc(N4C[C@@H]5[C@H](C4)[C@H]5C(=O)O)nc3)c12` [compound 5, (1R,5S,6r)-3-(5-(5-fluoro-2′,7-dimethyl-1H,2′H-[3,4′-biindazol]-1-yl)pyridin-2-yl)-3-azabicyclo[3.1.0]hexane-6-carboxylic acid]: the EC50 is 600 nM in series [1]; 600 nM at human STING variant HAQ; 400 nM at human STING variant AQ; 600 nM in series [3]; 300 nM in series [4]. For the same compound, the “TM (changes in TM, thermal shift)” value in series [2] is listed as 26 K. The same compound showed a Papp A→B at 10 μM in the series “in vitro” of 8 ×10⁻⁶ cm/s. Further, in “in vitro”, the efflux ratio at 10 μM worked out at 2.6.

Turning to `Cc1cc(Cl)cc2c(-c3cccc4nn(C)cc34)nn(-c3ccc(N4C[C@@H]5[C@H](C4)[C@H]5C(=O)O)nc3)c12` [compound 11, (1R,5S,6r)-3-(5-(5-chloro-2′,7-dimethyl-1H,2′H-[3,4′-biindazol]-1-yl)pyridin-2-yl)-3-azabicyclo[3.1.0]hexane-6-carboxylic acid], the EC50 worked out at 800 nM in series [1]; 3900 nM on human STING variant HAQ; 2400 nM on human STING variant AQ; 3000 nM in series [3]; 900 nM in series [4]. Besides, the “TM (changes in TM, thermal shift)” value in series [2] was determined as 24 K.

`Cc1c(F)ccc2c(-c3cccc4nn(C)cc34)nn(-c3ccc(N4CCC(C(=O)O)CC4)nc3)c12` [compound 7, 1-(5-(6-fluoro-2′,7-dimethyl-1H,2′H-[3,4′-biindazol]-1-yl)pyridin-2-yl)piperidine-4-carboxylic acid] gave an EC50 in series [1] of 200 nM. The EC50 at human STING variant HAQ amounted to 800 nM. Moreover, in the series “in vitro”, the Papp A→B at 10 μM came out at 13 ×10⁻⁶ cm/s and the efflux ratio at 10 μM came to 1.8.

In the case of `Cc1c(Cl)ccc2c(-c3cccc4nn(C)cc34)nn(-c3ccc(N4CCC(C(=O)O)CC4)nc3)c12` [compound 9, 1-(5-(6-chloro-2′,7-dimethyl-1H,2′H-[3,4′-biindazol]-1-yl)pyridin-2-yl)piperidine-4-carboxylic acid], the EC50 on human STING variant HAQ turned out to be 700 nM. Moreover, in “in vitro”, the Papp A→B at 10 μM was 10 ×10⁻⁶ cm/s and the efflux ratio at 10 μM stood at 1.5.

Regarding `Cc1c(Cl)c(F)cc2c(-c3cccc4nn(C)cc34)nn(-c3ccc(N4C[C@@H]5[C@H](C4)[C@H]5C(=O)O)nc3)c12` [compound 13, (1R,5S,6r)-3-(5-(6-chloro-5-fluoro-2′,7-dimethyl-1H,2′H-[3,4′-biindazol]-1-yl)pyridin-2-yl)-3-azabicyclo[3.1.0] hexane-6-carboxylic acid], the EC50 at human STING variant HAQ was 300 nM. Further, in the series “in vitro”, the apparent permeability from apical to basolateral (Papp A→B) at 10 μM worked out at 2 ×10⁻⁶ cm/s and the efflux ratio at 10 μM was 3.6.

Take `Cc1c(F)ccc2c(-c3cccc4nn(C)cc34)nn(-c3ccc(N4C[C@@H]5[C@H](C4)[C@H]5C(=O)O)nc3)c12` [compound 6, (1R,5S,6r)-3-(5-(6-fluoro-2′,7-dimethyl-1H,2′H-[3,4′-biindazol]-1-yl)pyridin-2-yl)-3-azabicyclo[3.1.0]hexane-6-carboxylic acid]: the values for the concentration for a half-maximal effect (EC50) (in series [1]; on human STING variant HAQ) were 200 nM and 300 nM, respectively. Moreover, in “in vitro”, the Papp A→B at 10 μM turned out to be 9 ×10⁻⁶ cm/s. In addition, the efflux ratio at 10 μM in “in vitro” stood at 2.4.

With `Cc1c(Cl)c(F)cc2c(-c3cccc4nn(C)cc34)nn(-c3ccc(N4CCC(C(=O)O)CC4)nc3)c12` [compound 12, 1-(5-(6-chloro-5-fluoro-2′,7-dimethyl-1H,2′H-[3,4′-biindazol]-1-yl)pyridin-2-yl) piperidine-4-carboxylic acid], the EC50 in series [1] was 300 nM; at human STING variant HAQ, 700 nM; at human STING variant AQ it was 600 nM; in series [3], 600 nM; in series [4], 300 nM. The compound also came in with a Papp A→B at 10 μM in “in vitro” of 4 ×10⁻⁶ cm/s. The efflux ratio at 10 μM in the series “in vitro” worked out at 6.4.

Turning to `Cc1cc(Cl)cc2c(-c3cccc4nn(C)cc34)nn(-c3ccc(N4CCC(C(=O)O)CC4)nc3)c12` [compound 10, 1-(5-(5-chloro-2′,7-dimethyl-1H,2′H-[3,4′-biindazol]-1-yl)pyridin-2-yl)piperidine-4-carboxylic acid], the EC50 worked out at 2200 nM in series [1]; 6600 nM at human STING variant HAQ; 5600 nM on human STING variant AQ; 7800 nM in series [3]; 2200 nM in series [4]. The “TM (changes in TM, thermal shift)” value in series [2] came to 19 K.

With `Cc1cc(F)cc2c(-c3cccc4nn(C)cc34)nn(-c3ccc(N4CCS(=O)(=O)CC4)nc3)c12` [Example #1, 4-(5-(5-fluoro-2′,7-dimethyl-1H,2′H-[3,4′-biindazol]-1-yl)pyridin-2-yl)thiomorpholine 1,1-dioxide], the EC50 was 800 nM in series [1]; 2300 nM on human STING variant HAQ; 1800 nM on human STING variant AQ; 2200 nM in series [3]; 700 nM in series [4]. The “TM (changes in TM, thermal shift)” value in series [2] was 21 K.
